Assays:
Experiment in all cases: relative viability (nuclei count vs DMSO), 5 days (fraction); higher = more cells survive
CAL-12T = test system: CAL-12T
Outline: (§1)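 Lung cancer cell lines, seeded in 1536-well plates, were treated the following day by pin tool with a single drug or with five library-drug doses (not always all listed) in √10 steps on top of a fixed anchor-drug dose. Cells were fixed and nuclei stained in one step after 5 days, and nuclei were counted. Relative viability is the nuclei count for treated wells divided by that for vehicle wells, reported as medians of duplicate plates.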

ChaGo-K-1 = test system: ChaGo-K-1
Outline: as §1

EMC-BAC-2 = test system: EMC-BAC-2
Outline: as §1

HCC-366 = test system: HCC-366
Outline: as §1

HCC-78 = test system: HCC-78
Outline: as §1

HOP-62 = test system: HOP-62
Outline: as §1

LC-2-ad = test system: LC-2-ad
Outline: as §1

LK-2 = test system: LK-2
Outline: as §1

NCI-H1355 = test system: NCI-H1355
Outline: as §1

NCI-H1734 = test system: NCI-H1734
Outline: as §1

NCI-H1993 = test system: NCI-H1993
Outline: as §1

NCI-H2009 = test system: NCI-H2009
Outline: as §1

NCI-H2085 = test system: NCI-H2085
Outline: as §1

NCI-H2228 = test system: NCI-H2228
Outline: as §1

NCI-H2347 = test system: NCI-H2347
Outline: as §1

NCI-H2405 = test system: NCI-H2405
Outline: as §1

NCI-H3122 = test system: NCI-H3122
Outline: as §1

NCI-H596 = test system: NCI-H596
Outline: as §1

NCI-H838 = test system: NCI-H838
Outline: as §1

PC-14 = test system: PC-14
Outline: as §1

RERF-LC-KJ = test system: RERF-LC-KJ
Outline: as §1

SK-MES-1 = test system: SK-MES-1
Outline: as §1

SW 1573 = test system: SW 1573
Outline: as §1

## O=C(O)CCCCC(CCSCc1ccccc1)SCc1ccccc1 (stereo not given) [CPI-613] + Cc1nc(Nc2ncc(C(=O)Nc3c(C)cccc3Cl)s2)cc(N2CCN(CCO)CC2)n1 [Dasatinib] (partner 0.075 µM)
CAL-12T; first compound 5 µM
  relative viability: 0.398
CAL-12T; first compound 15.81 µM
  relative viability: 0.454
CAL-12T; first compound 50 µM
  relative viability: 0.263
CAL-12T; first compound 158.11 µM
  relative viability: 0.0331
CAL-12T; first compound 500 µM
  relative viability: 0.0093
ChaGo-K-1; first compound 5 µM
  relative viability: 0.583
ChaGo-K-1; first compound 15.81 µM
  relative viability: 0.594
ChaGo-K-1; first compound 50 µM
  relative viability: 0.594
ChaGo-K-1; first compound 158.11 µM
  relative viability: 0.336
ChaGo-K-1; first compound 500 µM
  relative viability: 0.146
EMC-BAC-2; first compound 5 µM
  relative viability: 0.303
EMC-BAC-2; first compound 15.81 µM
  relative viability: 0.187
EMC-BAC-2; first compound 50 µM
  relative viability: 0.309
EMC-BAC-2; first compound 158.11 µM
  relative viability: 0.206
EMC-BAC-2; first compound 500 µM
  relative viability: 0.0369
HCC-366; first compound 5 µM
  relative viability: 0.604
HCC-366; first compound 15.81 µM
  relative viability: 0.606
HCC-366; first compound 50 µM
  relative viability: 0.798
HCC-366; first compound 158.11 µM
  relative viability: 0.309
HCC-366; first compound 500 µM
  relative viability: 0.0101
HCC-78; first compound 5 µM
  relative viability: 0.358
HCC-78; first compound 15.81 µM
  relative viability: 0.272
HCC-78; first compound 50 µM
  relative viability: 0.408
HCC-78; first compound 158.11 µM
  relative viability: 0.339
HCC-78; first compound 500 µM
  relative viability: 0.342
HOP-62; first compound 5 µM
  relative viability: 0.625
HOP-62; first compound 15.81 µM
  relative viability: 0.68
HOP-62; first compound 50 µM
  relative viability: 0.659
HOP-62; first compound 158.11 µM
  relative viability: 0.521
HOP-62; first compound 500 µM
  relative viability: 0.0443
LC-2-ad; first compound 5 µM
  relative viability: 0.488
LC-2-ad; first compound 15.81 µM
  relative viability: 0.51
LC-2-ad; first compound 50 µM
  relative viability: 0.573
LC-2-ad; first compound 158.11 µM
  relative viability: 0.259
LC-2-ad; first compound 500 µM
  relative viability: 0.0544
LK-2; first compound 5 µM
  relative viability: 0.241
LK-2; first compound 15.81 µM
  relative viability: 0.279
LK-2; first compound 50 µM
  relative viability: 0.252
LK-2; first compound 158.11 µM
  relative viability: 0.254
LK-2; first compound 500 µM
  relative viability: 0.195
NCI-H1355; first compound 5 µM
  relative viability: 0.682
NCI-H1355; first compound 15.81 µM
  relative viability: 0.697
NCI-H1355; first compound 50 µM
  relative viability: 0.701
NCI-H1355; first compound 158.11 µM
  relative viability: 0.53
NCI-H1355; first compound 500 µM
  relative viability: 0.375
NCI-H1734; first compound 5 µM
  relative viability: 0.411
NCI-H1734; first compound 15.81 µM
  relative viability: 0.47
NCI-H1734; first compound 50 µM
  relative viability: 0.413
NCI-H1734; first compound 158.11 µM
  relative viability: 0.301
NCI-H1734; first compound 500 µM
  relative viability: 0.105
NCI-H1993; first compound 5 µM
  relative viability: 0.495
NCI-H1993; first compound 15.81 µM
  relative viability: 0.262
NCI-H1993; first compound 50 µM
  relative viability: 0.605
NCI-H1993; first compound 158.11 µM
  relative viability: 0.522
NCI-H1993; first compound 500 µM
  relative viability: 0.369
NCI-H2009; first compound 5 µM
  relative viability: 0.277
NCI-H2009; first compound 15.81 µM
  relative viability: 0.264
NCI-H2009; first compound 50 µM
  relative viability: 0.278
NCI-H2009; first compound 158.11 µM
  relative viability: 0.0869
NCI-H2009; first compound 500 µM
  relative viability: 0.029
NCI-H2085; first compound 5 µM
  relative viability: 0.267
NCI-H2085; first compound 15.81 µM
  relative viability: 0.266
NCI-H2085; first compound 50 µM
  relative viability: 0.255
NCI-H2085; first compound 158.11 µM
  relative viability: 0.242
NCI-H2085; first compound 500 µM
  relative viability: 0.257
NCI-H2228; first compound 5 µM
  relative viability: 0.559
NCI-H2228; first compound 15.81 µM
  relative viability: 0.469
NCI-H2228; first compound 50 µM
  relative viability: 0.437
NCI-H2228; first compound 158.11 µM
  relative viability: 0.231
NCI-H2228; first compound 500 µM
  relative viability: 0.0527
NCI-H2347; first compound 5 µM
  relative viability: 0.295
NCI-H2347; first compound 15.81 µM
  relative viability: 0.308
NCI-H2347; first compound 50 µM
  relative viability: 0.227
NCI-H2347; first compound 158.11 µM
  relative viability: 0.315
NCI-H2347; first compound 500 µM
  relative viability: 0.327
NCI-H2405; first compound 5 µM
  relative viability: 0.205
NCI-H2405; first compound 15.81 µM
  relative viability: 0.176
NCI-H2405; first compound 50 µM
  relative viability: 0.203
NCI-H2405; first compound 158.11 µM
  relative viability: 0.201
NCI-H2405; first compound 500 µM
  relative viability: 0.209
NCI-H3122; first compound 5 µM
  relative viability: 0.795
NCI-H3122; first compound 15.81 µM
  relative viability: 0.693
NCI-H3122; first compound 50 µM
  relative viability: 0.802
NCI-H3122; first compound 158.11 µM
  relative viability: 0.702
NCI-H3122; first compound 500 µM
  relative viability: 0.28
NCI-H596; first compound 5 µM
  relative viability: 0.647
NCI-H596; first compound 15.81 µM
  relative viability: 0.616
NCI-H596; first compound 50 µM
  relative viability: 0.628
NCI-H596; first compound 158.11 µM
  relative viability: 0.465
NCI-H596; first compound 500 µM
  relative viability: 0.0504
NCI-H838; first compound 5 µM
  relative viability: 0.285
NCI-H838; first compound 15.81 µM
  relative viability: 0.237
NCI-H838; first compound 50 µM
  relative viability: 0.286
NCI-H838; first compound 158.11 µM
  relative viability: 0.261
NCI-H838; first compound 500 µM
  relative viability: 0.243
PC-14; first compound 5 µM
  relative viability: 0.237
PC-14; first compound 15.81 µM
  relative viability: 0.232
PC-14; first compound 50 µM
  relative viability: 0.247
PC-14; first compound 158.11 µM
  relative viability: 0.0644
PC-14; first compound 500 µM
  relative viability: 0.0134
RERF-LC-KJ; first compound 5 µM
  relative viability: 0.784
RERF-LC-KJ; first compound 15.81 µM
  relative viability: 0.754
RERF-LC-KJ; first compound 50 µM
  relative viability: 0.766
RERF-LC-KJ; first compound 158.11 µM
  relative viability: 0.198
RERF-LC-KJ; first compound 500 µM
  relative viability: 0.123
SK-MES-1; first compound 5 µM
  relative viability: 0.393
SK-MES-1; first compound 15.81 µM
  relative viability: 0.428
SK-MES-1; first compound 50 µM
  relative viability: 0.432
SK-MES-1; first compound 158.11 µM
  relative viability: 0.125
SK-MES-1; first compound 500 µM
  relative viability: 0.0807
SW 1573; first compound 5 µM
  relative viability: 0.452
SW 1573; first compound 15.81 µM
  relative viability: 0.503
SW 1573; first compound 50 µM
  relative viability: 0.467
SW 1573; first compound 158.11 µM
  relative viability: 0.118
SW 1573; first compound 500 µM
  relative viability: 0.0385
